# Read-outs that look alike come from different tables or passages of the source.
# Legend:
# human 5-HT2A receptor = human 5-HT2A receptor (Homo sapiens, UniProt P28223); conditions: for Emax: NIH3T3, read-out: h5-HT2A Activation efficacy max ± SD, relative to 5-HT = 100%
# h5-HT2A receptor = biological target: T1, h5-HT2A receptor (Homo sapiens, UniProt P28223); assay: Radioligand binding at h5-HT2A receptor ([3H]ketanserin); conditions: for Selectivity 5-HT2A vs. 5-HT1A / Selectivity 5-HT2A vs. 5-HT2C: binding ratio; for Ki: h5-HT2A Receptor binding Ki ± SD, [3H]ketanserin, mean ± SD
# T1 construct: expressed in transfected cells; host or cells: HEK 293 cells (membrane preparations)
# h5-HT2C receptor = biological target: T2, h5-HT2C receptor (Homo sapiens, UniProt P28335); assay: biochemical; type: binding; conditions: [3H]mesulergine; mean ± SD; read-out: h5-HT2C Receptor binding Ki ± SD
# T2 construct: expressed in transfected cells; host or cells: HEK 293 cells (membrane preparations)
# T2 sequence (P28335 33-458): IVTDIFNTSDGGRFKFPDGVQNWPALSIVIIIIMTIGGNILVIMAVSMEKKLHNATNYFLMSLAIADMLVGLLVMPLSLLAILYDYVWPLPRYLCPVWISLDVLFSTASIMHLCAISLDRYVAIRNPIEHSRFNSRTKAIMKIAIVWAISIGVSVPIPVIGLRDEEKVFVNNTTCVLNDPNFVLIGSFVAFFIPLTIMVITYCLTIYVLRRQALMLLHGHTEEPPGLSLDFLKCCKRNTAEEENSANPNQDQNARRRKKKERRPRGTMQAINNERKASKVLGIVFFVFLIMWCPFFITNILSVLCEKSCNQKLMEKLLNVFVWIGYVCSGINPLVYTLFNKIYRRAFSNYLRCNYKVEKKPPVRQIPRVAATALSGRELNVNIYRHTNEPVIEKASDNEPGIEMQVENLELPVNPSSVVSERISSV
# mouse TAAR1 = biological target: T3, mouse TAAR1 (Mus musculus, UniProt Q923Y8); assay: Radioligand binding at mouse TAAR1 ([3H]RO5166017)
# T3 construct: expressed in transfected cells; host or cells: HEK 293 cells (membrane preparations)
# hDAT = biological target: T4, hDAT (Homo sapiens, UniProt Q01959); assay: Radioligand binding at hDAT ([3H]WIN35,428)
# T4 construct: expressed in transfected cells; host or cells: HEK 293 cells (membrane preparations)
# [1] = biological target: T5, dopaminergic hD2 receptor (Homo sapiens, UniProt P14416); assay: Radioligand binding at dopaminergic hD2 receptor ([3H]spiperone)
# T5 construct: expressed in transfected cells; host or cells: HEK 293 cells (membrane preparations)
# rat TAAR1 = biological target: T6, rat TAAR1 (Rattus norvegicus, UniProt Q923Y9); assay: Radioligand binding at rat TAAR1 ([3H]RO5166017)
# T6 construct: expressed in transfected cells; host or cells: HEK 293 cells (membrane preparations)
# h5-HT1A receptor = biological target: T7, h5-HT1A receptor (Homo sapiens, UniProt P08908); assay: Radioligand binding at h5-HT1A receptor ([3H]8-OH-DPAT)
# T7 construct: expressed in transfected cells; host or cells: HEK 293 cells (membrane preparations)
# T7 sequence (P08908 1-422): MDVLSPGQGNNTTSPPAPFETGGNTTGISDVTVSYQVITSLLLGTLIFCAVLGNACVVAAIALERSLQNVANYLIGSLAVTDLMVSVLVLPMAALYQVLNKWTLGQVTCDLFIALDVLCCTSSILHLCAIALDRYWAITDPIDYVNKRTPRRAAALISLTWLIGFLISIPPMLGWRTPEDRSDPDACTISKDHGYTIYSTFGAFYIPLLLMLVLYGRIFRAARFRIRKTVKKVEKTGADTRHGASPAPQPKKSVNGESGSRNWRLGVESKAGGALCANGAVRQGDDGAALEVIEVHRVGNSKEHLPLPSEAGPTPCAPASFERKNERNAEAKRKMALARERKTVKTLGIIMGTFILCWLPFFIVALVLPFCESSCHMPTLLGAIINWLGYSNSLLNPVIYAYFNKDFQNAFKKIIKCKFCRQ
# hNET = biological target: T8, hNET (Homo sapiens, UniProt P23975); assay: Radioligand binding at hNET (N-methyl-[3H]nisoxetine)
# T8 construct: expressed in transfected cells; host or cells: HEK 293 cells (membrane preparations)
# human 5-HT2B receptor = human 5-HT2B receptor (Homo sapiens, UniProt P41595); conditions: for EC50: h5-HT2B Activation potency EC50 ± SD, HEK 293 cells, calcium FLIPR, mean ± SD; for Emax: HEK293, read-out: h5-HT2B Activation efficacy max ± SD, relative to 5-HT = 100%
# hSERT = biological target: T9, hSERT (Homo sapiens, UniProt P31645); assay: Radioligand binding at hSERT ([3H]citalopram)
# T9 construct: expressed in transfected cells; host or cells: HEK 293 cells (membrane preparations)
# hα2A adrenergic receptor = biological target: T10, hα2A adrenergic receptor (Homo sapiens, UniProt P08913); assay: Radioligand binding at hα2A adrenergic receptor ([3H]rauwolscine)
# T10 construct: expressed in transfected cells; host or cells: Chinese hamster lung cells (membrane preparations)
# T10 sequence (P08913 1-465): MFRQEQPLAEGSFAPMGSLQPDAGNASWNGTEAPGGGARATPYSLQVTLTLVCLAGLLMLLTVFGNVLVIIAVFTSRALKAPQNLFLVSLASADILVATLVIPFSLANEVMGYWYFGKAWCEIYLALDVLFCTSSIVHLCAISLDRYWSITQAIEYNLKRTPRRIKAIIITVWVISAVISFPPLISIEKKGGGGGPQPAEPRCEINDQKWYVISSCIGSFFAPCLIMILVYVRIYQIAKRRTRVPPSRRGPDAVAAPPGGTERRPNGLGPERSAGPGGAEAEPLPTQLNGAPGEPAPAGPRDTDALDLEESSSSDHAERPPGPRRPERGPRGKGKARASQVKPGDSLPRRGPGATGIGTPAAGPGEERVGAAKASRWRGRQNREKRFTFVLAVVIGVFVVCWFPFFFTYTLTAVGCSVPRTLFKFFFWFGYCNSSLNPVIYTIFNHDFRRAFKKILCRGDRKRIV
# hα1A adrenergic receptor = biological target: T11, hα1A adrenergic receptor (Homo sapiens, UniProt P35348); assay: Radioligand binding at hα1A adrenergic receptor ([3H]prazosin); conditions: mean ± SD
# T11 construct: expressed in transfected cells; host or cells: Chinese hamster ovary cells (membrane preparations)
# T11 sequence (P35348 1-466): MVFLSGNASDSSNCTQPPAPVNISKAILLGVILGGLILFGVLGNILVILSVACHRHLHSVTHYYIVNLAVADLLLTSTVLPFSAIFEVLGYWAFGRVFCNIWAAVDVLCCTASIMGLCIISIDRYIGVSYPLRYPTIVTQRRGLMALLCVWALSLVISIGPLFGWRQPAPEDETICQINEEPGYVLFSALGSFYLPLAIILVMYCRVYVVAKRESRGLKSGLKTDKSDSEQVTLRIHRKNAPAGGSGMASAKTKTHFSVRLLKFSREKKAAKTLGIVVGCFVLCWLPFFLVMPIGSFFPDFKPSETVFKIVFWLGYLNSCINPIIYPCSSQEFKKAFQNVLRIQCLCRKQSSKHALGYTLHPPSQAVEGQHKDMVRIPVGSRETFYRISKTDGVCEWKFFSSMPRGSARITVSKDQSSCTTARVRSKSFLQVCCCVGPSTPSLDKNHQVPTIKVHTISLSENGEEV
# humans = conditions: cited from earlier work
# Sequence of human 5-HT2A receptor (P28223 whole entry): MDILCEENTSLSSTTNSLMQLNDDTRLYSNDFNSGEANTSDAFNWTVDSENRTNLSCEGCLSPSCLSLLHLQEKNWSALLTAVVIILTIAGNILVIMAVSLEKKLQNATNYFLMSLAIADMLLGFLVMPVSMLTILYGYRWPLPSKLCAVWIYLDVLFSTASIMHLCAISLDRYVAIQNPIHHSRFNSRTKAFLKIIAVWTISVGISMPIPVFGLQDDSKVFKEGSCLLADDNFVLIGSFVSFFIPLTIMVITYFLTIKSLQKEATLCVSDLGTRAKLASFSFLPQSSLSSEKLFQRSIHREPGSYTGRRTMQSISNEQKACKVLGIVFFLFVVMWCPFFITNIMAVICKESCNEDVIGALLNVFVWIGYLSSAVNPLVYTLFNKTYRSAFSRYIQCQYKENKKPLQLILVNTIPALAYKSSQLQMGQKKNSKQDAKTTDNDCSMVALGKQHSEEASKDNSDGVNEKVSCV
# T1 sequence (P28223 whole entry): as above
# T4 sequence (Q01959 whole entry): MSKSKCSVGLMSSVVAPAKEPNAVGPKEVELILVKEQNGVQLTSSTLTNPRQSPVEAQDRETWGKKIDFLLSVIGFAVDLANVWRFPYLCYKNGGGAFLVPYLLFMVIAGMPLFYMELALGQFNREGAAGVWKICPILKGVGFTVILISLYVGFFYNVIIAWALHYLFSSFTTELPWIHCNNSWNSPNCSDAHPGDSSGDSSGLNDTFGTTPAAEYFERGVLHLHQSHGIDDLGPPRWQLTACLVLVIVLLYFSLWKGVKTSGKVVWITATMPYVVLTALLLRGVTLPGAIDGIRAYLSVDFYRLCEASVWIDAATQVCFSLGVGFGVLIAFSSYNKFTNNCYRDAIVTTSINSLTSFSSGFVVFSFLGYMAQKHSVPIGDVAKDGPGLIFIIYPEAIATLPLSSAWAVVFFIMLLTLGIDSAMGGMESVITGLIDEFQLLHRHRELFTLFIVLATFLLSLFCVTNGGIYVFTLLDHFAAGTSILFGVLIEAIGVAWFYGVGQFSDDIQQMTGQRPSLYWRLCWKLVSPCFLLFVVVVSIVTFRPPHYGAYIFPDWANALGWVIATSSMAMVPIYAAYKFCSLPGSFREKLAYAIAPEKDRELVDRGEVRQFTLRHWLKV
# T9 sequence (P31645 whole entry): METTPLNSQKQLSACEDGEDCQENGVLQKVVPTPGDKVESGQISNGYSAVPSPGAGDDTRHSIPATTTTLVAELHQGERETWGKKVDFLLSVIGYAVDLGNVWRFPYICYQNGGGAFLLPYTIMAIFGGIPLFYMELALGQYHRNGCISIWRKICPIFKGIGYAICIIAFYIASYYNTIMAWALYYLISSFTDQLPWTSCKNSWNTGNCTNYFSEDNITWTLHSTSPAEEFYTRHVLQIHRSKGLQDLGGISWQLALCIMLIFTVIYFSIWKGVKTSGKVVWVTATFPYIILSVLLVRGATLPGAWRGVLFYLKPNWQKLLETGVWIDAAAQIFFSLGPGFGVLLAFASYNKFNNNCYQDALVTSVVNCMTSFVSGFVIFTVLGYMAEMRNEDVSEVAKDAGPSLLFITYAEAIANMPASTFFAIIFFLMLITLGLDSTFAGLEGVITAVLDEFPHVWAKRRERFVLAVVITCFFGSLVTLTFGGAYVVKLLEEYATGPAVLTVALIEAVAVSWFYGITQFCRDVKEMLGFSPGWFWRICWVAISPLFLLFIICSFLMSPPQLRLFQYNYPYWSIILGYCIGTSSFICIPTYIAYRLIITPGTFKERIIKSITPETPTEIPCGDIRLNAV
# T3 sequence (Q923Y8 whole entry): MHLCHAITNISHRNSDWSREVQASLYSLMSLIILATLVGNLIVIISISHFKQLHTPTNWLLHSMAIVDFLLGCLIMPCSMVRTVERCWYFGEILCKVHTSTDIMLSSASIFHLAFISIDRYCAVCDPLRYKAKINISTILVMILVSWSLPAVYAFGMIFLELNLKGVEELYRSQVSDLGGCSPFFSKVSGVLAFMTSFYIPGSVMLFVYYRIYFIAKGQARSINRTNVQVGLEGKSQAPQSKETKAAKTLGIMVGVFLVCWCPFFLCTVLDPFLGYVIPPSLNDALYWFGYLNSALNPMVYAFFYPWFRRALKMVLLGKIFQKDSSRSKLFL
# T8 sequence (P23975 whole entry): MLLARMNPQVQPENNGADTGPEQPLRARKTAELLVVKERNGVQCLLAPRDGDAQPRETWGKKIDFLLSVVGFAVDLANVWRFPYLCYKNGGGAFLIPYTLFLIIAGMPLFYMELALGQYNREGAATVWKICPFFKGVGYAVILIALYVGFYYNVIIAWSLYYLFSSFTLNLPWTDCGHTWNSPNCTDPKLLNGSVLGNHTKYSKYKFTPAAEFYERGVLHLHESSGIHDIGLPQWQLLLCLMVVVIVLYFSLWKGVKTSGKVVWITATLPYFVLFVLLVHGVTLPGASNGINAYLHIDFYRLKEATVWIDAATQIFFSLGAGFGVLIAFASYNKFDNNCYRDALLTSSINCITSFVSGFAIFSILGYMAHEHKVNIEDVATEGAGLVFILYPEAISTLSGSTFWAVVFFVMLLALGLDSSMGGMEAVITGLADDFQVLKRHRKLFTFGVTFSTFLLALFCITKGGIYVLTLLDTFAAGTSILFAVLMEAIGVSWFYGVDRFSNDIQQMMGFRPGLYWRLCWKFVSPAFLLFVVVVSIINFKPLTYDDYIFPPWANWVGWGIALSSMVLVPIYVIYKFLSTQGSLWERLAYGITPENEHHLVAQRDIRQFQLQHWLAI
# T5 sequence (P14416 whole entry): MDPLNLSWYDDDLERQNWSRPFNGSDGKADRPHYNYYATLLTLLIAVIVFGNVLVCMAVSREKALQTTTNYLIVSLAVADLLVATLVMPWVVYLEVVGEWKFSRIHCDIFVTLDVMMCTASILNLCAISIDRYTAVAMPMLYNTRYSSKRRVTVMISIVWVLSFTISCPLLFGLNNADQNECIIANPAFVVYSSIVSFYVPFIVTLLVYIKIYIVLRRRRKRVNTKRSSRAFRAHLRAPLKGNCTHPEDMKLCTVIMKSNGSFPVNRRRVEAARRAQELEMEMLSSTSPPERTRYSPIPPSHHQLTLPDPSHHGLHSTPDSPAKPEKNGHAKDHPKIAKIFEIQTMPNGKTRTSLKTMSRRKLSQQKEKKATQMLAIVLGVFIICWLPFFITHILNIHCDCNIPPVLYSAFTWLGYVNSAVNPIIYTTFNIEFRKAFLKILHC
# T6 sequence (Q923Y9 whole entry): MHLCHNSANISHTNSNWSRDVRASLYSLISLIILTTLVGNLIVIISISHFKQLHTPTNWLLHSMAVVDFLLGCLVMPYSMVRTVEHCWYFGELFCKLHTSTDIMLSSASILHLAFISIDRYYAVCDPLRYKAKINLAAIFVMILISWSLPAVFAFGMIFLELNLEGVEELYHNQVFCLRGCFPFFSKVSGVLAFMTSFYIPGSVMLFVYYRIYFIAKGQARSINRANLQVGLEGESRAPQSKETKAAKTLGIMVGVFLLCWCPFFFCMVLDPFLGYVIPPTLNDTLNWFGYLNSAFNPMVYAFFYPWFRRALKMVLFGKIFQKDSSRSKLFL
# Sequence of human 5-HT2B receptor (P41595 whole entry): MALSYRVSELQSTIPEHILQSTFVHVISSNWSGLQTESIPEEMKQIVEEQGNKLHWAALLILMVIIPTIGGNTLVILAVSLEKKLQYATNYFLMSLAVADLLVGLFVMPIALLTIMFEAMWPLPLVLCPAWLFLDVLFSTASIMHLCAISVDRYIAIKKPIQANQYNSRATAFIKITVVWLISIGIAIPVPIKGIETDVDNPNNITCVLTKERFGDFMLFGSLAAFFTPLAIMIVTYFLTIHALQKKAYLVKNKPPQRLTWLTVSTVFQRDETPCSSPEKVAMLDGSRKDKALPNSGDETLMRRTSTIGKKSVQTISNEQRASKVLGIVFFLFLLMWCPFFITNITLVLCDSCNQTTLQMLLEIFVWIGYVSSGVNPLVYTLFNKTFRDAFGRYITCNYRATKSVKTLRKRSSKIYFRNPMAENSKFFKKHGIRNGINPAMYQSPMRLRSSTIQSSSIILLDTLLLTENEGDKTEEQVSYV
Compound,EC50 (human 5-HT2A receptor) [µM],Selectivity 5-HT2A vs. 5-HT2C (h5-HT2A receptor),Ki (h5-HT2A receptor) [µM],Ki (h5-HT2C receptor) [µM],Ki (mouse TAAR1) [µM],Ki (hDAT) [µM],Ki [1] [µM],Ki (rat TAAR1) [µM],Ki (h5-HT1A receptor) [µM],Ki (hNET) [µM],EC50 (human 5-HT2B receptor) [µM],Ki (hSERT) [µM],Ki (hα2A adrenergic receptor) [µM],Ki (hα1A adrenergic receptor) [µM],Emax (human 5-HT2A receptor) [%],Emax (human 5-HT2B receptor) [%],also measured
"COc1cc(CCN)cc(OC)c1OC(C)C [compound 22, 3,5-dimethoxy-4-isopropoxyphenethylamine]",1.9,0.9,6.2,5.4,> 4.2,> 8.5,> 6.3,> 4.7,> 5.6,> 9.7,> 10,> 7.5,1.2,> 8.7,,,Selectivity 5-HT2A vs. 5-HT1A (h5-HT2A receptor): >1
"COc1cc(CC(C)N)cc(OC)c1OCCF (stereo not drawn) [compound 20, 3,5-dimethoxy-4-(2-fluoroethoxy)amphetamine]",0.12 ± 0.04,,12,8.4,> 4.2,> 8.5,> 6.3,> 4.7,> 5.6,> 9.7,0.8 ± 0.24,> 7.5,> 5.1,> 8.7,86 to 102,18 to 29,Selectivity 5-HT2A vs. 5-HT1A (h5-HT2A receptor): >1
"COc1cc(CC(C)N)c(OC)cc1Br (stereo not drawn) [compound 2, 4-bromo-2,5-dimethoxyamphetamine, reference compound]",,,,,,,,,,,,,,,,,Psychedelic / active dose in humans (humans; ref Shulgin and Shulgin 1991): 1 to 3 mg
"COc1cc(CC(C)N)cc(OC)c1OCCCF (stereo not drawn) [compound 27, 3,5-dimethoxy-4-(3-fluoropropoxy)-amphetamine]",0.057 ± 0.002,1.7,2.6,4.4,2.8,> 8.5,> 6.3,> 4.7,> 5.6,> 9.7,> 10,> 7.5,> 5.1,> 8.7,,,
"COc1cc(CC(C)N)c(OC)cc1C (stereo not drawn) [compound 7, 2,5-dimethoxy-4-methylamphetamine, reference compound]",,,,,,,,,,,,,,,,,Psychedelic / active dose in humans (humans; ref Shulgin and Shulgin 1991): 3 to 10 mg
"COc1cc(CCN)cc(OC)c1OCC(F)F [compound 17, 4-(2,2-difluoroethoxy)-3,5-dimethoxyphenethylamine]",1.3,0.9,2.9,2.7,> 4.2,> 8.5,> 6.3,2.1,> 5.6,> 9.7,1.7,> 7.5,2.7,> 8.7,44 to 78,25 ± 7,
"COc1cc(CCN)cc(OC)c1OC(F)F [compound 12, 4-difluoromethoxy-3,5-dimethoxyphenethylamine]",1.5,0.8,3.5,2.8,> 4.2,> 8.5,> 6.3,0.88 ± 0.18,2.5,> 9.7,> 10,> 7.5,1.7,8,85 to 94,,Increase in human potency compared to mescaline (5) (humans; ref Trachsel 2012): 4 fold; Selectivity 5-HT2A vs. 5-HT1A (h5-HT2A receptor): 0.7
"COc1cc(CC(C)N)cc(OC)c1OCC(F)F (stereo not drawn) [compound 19, 4-(2,2-difluoroethoxy)-3,5-dimethoxyamphetamine]",0.12 ± 0.02,1.7,1.5,2.6,> 4.2,> 8.5,> 6.3,3.9,> 5.6,> 9.7,0.26 ± 0.03,> 7.5,> 5.1,> 8.7,86 to 102,18 to 29,
"COc1cc(CCN)cc(OC)c1OCCF [compound 16, 3,5-dimethoxy-4-(2-fluoroethoxy)phenethylamine]",5.7,,> 12,5.7,> 4.2,> 8.5,> 6.3,> 4,> 5.6,> 9.7,2.3,> 7.5,3.7,> 8.7,85 to 94,29 ± 7,
"C=CCOc1c(OC)cc(CC(C)N)cc1OC (stereo not drawn) [compound 31, 4-allyloxy-3,5-dimethoxyamphetamine]",0.19 ± 0.03,1.7,1.1,1.7,3.3,> 8.5,> 6.3,3.6,> 5.6,> 9.7,> 10,> 7.5,> 5.1,> 8.7,,,"Active dose in humans (humans; ref Trachsel et al., 2013): 15 to 30 mg; Increase in 5-HT2A receptor affinity compared with TMA (6) (h5-HT2A receptor; ratio of Ki values): ≥ 10 fold"
"COc1cc(CCN)cc(OC)c1SC [compound 10, 4-thiomescaline, reference compound]",,,,,,,,,,,,,,,,,Increase in human potency compared to mescaline (5) (humans; ref Shulgin and Shulgin 1991): 10 fold; Psychedelic / active dose in humans (humans; ref Shulgin and Shulgin 1991): 20 to 40 mg

# Source: paper PMC8865417, “Receptor Interaction Profiles of 4-Alkoxy-3,5-Dimethoxy-Phenethylamines (Mescaline Derivatives) and Related Amphetamines” (Frontiers in Pharmacology, 2022)
